From ChEMBL document CHEMBL5260858, “Targeting mycobacterial membranes and membrane proteins: Progress and limitations” (Bioorg Med Chem, 2023)
In brackets after ≈: the same amount, converted by molar mass.

What was measured:
[1] = system: Mycobacterium tuberculosis variant bovis; assay: Antitubercular activity against Mycobacterium tuberculosis variant bovis assessed as bacterial growth inhibition; type: functional
[2] = system: Mycobacterium tuberculosis variant bovis; assay: Antitubercular activity against Mycobacterium bovis assessed as bacterial growth inhibition; type: functional
[3] = system: Mycobacterium tuberculosis variant bovis; assay: Antitubercular activity against Mycobacterium bovis BCG assessed as minimum bactericidal concentration for 99.9% activity; type: functional; details: read-out: MBC99.9
[4] = system: Mycobacterium tuberculosis variant bovis; assay: Antitubercular activity against Mycobacterium bovis BCG assessed as bacterial growth inhibition; type: functional
[5] = system: Mycobacterium tuberculosis variant bovis; assay: Inhibition of mycolic acid biosynthesis in Mycobacterium bovis BCG assessed as decrease in methoxy-mycolic acid in presence of 14C-labeled acetic acid incubated for 60 mins by photo-stimulated luminescence analysis; type: functional, organism-based; details: 1 h
[6] = system: Mycobacterium tuberculosis variant bovis; assay: Inhibition of mycolic acid biosynthesis in Mycobacterium bovis BCG assessed as decrease in keto-mycolic acid in presence of 14C-labeled acetic acid incubated for 60 mins by photo-stimulated luminescence analysis; type: functional, organism-based; details: 1 h
[7] = system: Mycobacterium tuberculosis variant bovis; assay: Antitubercular activity against Mycobacterium bovis BCG infected in mouse J774.A1 cells assessed as reduction in intracellular bacterial load incubated for 6 days; type: functional; details: 144 h, time 6 day
[8] = system: Mycobacterium tuberculosis variant bovis; assay: Antitubercular activity against Mycobacterium bovis BCG assessed as bacterial growth inhibition incubated for 24 hrs by [14C]-acetate labelling based radiometric analysis; type: functional
[9] = system: Mycobacterium tuberculosis variant bovis; assay: Antitubercular activity against Mycobacterium bovis BCG assessed as bacterial growth inhibition incubated for 14 days by agar plate method; type: functional; details: 336 h, time 14 day

For CCc1nc2ccc(Cl)cn2c1C(=O)NCc1ccc(N2CCC(c3ccc(OC(F)(F)F)cc3)CC2)cc1 [TELACEBEC], the MIC [1] was 0.0035 µM (≈ 0.00195 µg/mL).

COc1nc2ccc(Br)cc2cc1[C@@H](c1ccccc1)[C@@](O)(CCN(C)C)c1cccc2ccccc12 [BEDAQUILINE] gave an MIC [2] of 0.003 µg/mL (≈ 5.4 nM).

In the case of CCCCCCCCn1cc(CN2CCCCCC2)c2c(F)cccc21, the MBC [3] is reported as 12 µM (≈ 4.3 µg/mL) and the MIC50 [4] is reported as 0.3 µM (≈ 0.108 µg/mL).

CCCCCCCCn1cc(CN2CCC3(CC2)OCCCO3)c2ccc(OC)cc21 was tested, and the MBC [3] was 1.2 µM (≈ 0.514 µg/mL) and the MIC50 [4] was 0.3 µM (≈ 0.129 µg/mL).

O=[N+]([O-])c1cccc2c1ccn2CCCCC[P+](c1ccccc1)(c1ccccc1)c1ccccc1 was tested, and the MIC50 [2] was 3 µM.

In the case of NNC(=O)c1ccncc1 [ISONIAZID], the IC50 [5] is reported as 0.036 µg/mL and the IC50 [6] is reported as 0.021 µg/mL.

Compound COC(=O)c1c(NC(=O)c2c(F)c(F)c(F)c(F)c2F)sc(C(N)=O)c1C has an MIC [7] of 6.4 µM (≈ 2.61 µg/mL).

For COc1cccc2ccn(CCCCC[P+](c3ccccc3)(c3ccccc3)c3ccccc3)c12, the MIC50 [2] was 2 µM.

COC(=O)c1c(NC(=O)c2c(F)c(F)c(F)c(F)c2F)sc2c1CCCCC2 showed an MIC [7] of 12.8 µM (≈ 5.37 µg/mL).

CCc1ccc([C@H]2C[C@@H](C(F)(F)F)n3ncc(C(=O)NCc4ccc(OC)cc4)c3N2)cc1 showed an MIC [8] of 0.3 µM (≈ 0.138 µg/mL).

C[C@@]1(COc2ccc(N3CCC(Oc4ccc(OC(F)(F)F)cc4)CC3)cc2)Cn2cc([N+](=O)[O-])nc2O1 gave an IC50 [5] of 0.63 µg/mL and an IC50 [6] of 0.69 µg/mL.

CCc1ccc([C@H]2C[C@@H](C(F)(F)F)n3ncc(C(=O)NCc4ccc5c(c4)OCO5)c3N2)cc1 showed an MIC [8] of 0.8 µM (≈ 0.378 µg/mL).

Cc1cc2oc(=O)cc(-c3cccc(N)c3)c2c(C)c1-c1ccc(CN2CCOCC2)cc1 gave an MIC [9] of 0.71 µM (≈ 0.313 µg/mL).
